Like-named read-outs stand apart in the source and are kept apart here.
Key:
[1] = target: reverse transcriptase du HIV1 (Human immunodeficiency virus type 1 group M subtype B, UniProt P04585); test: Reverse transcriptase activity of HIV1 incubated with NP derivatives, tested immediately; assay type: biochemical; conditions: témoin virus 11924
Description: (§1) La technique de culture et de titrage de la reverse-transcriptase du HIV est rappelée ci-après : Des lymphocytes humains, préalablement activés par la PHA (phytohémagglutinine) sont incubés dans un milieu nutritif (RPMI 1640 + sérum de veau foetal + antibiotiques + β-mercaptoéthanol 10⁻⁵M + 2»g/ml polybrene + sérum anti-interféron 1/2000 + IL2 10%). Après centrifugation, le culot cellulaire est mis en présence du HIV1 (10.000 cpm/10⁶ cellules) pendant 1 heure à 37°. Après lavage et centrifugation, les cellules sont resuspendues dans du milieu nutritif. Les surnageants de culture cellulaire sont suivis pendant plusieurs jours pour leur activité reverse transcriptase. Ils sont centrifugés 7 minutes à 95000 tours et le culot est lysé par du Triton® 0,1% (produit Touzart et Matignon). Un mélange réactionnel est ajouté (Tris, DTT (dithiothreitol), MgCl₂, KCl, PolyA, Oligo dT, ³HTTP, H₂O) et après 1 heure d'incubation à 37°C, la réaction est arrêtée avec du pyrophosphate de sodium et de l'acide nucléique de levure est ajouté pour aider la précipitation. De l'acide trichloracétique (TCA) est ajouté et la solution est laissée 15 minutes à 4°C. Après filtration sous vide avec des filtres millipores 0.45 »m et plusieurs lavages avec du TCA (0.5%), on procède au rinçage à l'éthanol, au sèchage en étuve 37° et enfin au comptage.
Le HIV1 est incubé 1 heure à 37° en présence d'AcN (D23, 621, N5-12), d'anticorps anti-NP (TNP11) ou en présence des dérivés NP (DNP-glycine et DNP-lysine). L'activité reverse transcriptase du HIV1 est testée immédiatement (cas des dérivés DNP-glycine et DNP-lysine). Alternativement, des lymphocytes humains sont infectés par le HIV1 préincubé avec les produits à tester, et la culture cellulaire est observée pendant 3 semaines par titrage de la reverse transcriptase. Durant cette période les cultures des lymphocytes humains ne contiennent pas d'anticorps ni d'antigène.

[2] = system: HVE (Herpes Virus Eidolon); test: Plaque method, neutralisation of HVE by coupled NP (TCC31 cells); assay type: cell-based
From the text: L'effet des NP couplés (TNP-BSA, DNP-Glycine) a été évalué par la méthode des plages, comme pour le virus de la chorioméningite lymphocytaire dans l'exemple I. L'effet neutralisant des NP couplés a été évalué sur les virus enveloppés ou non enveloppés suivants :
C'est un virus de l'herpès à double brin d'ADN que l'on cultive sur des cellules TCC31 de souris. Les résultats sont observés après 2 Jours de culture.
Pour tous les virus testés, les dilutions des virus donnaient 50 plages/cupule.

[3] = system: virus de la chorioméningite lymphocytaire (CML); test: organism not typed; assay type: cell-based; conditions: for % Inhibition: ajoutés après l'infection virale
HIV1 = HIV1 infection of human lymphocytes preincubated with antibodies or NP derivatives, reverse transcriptase in supernatants; assay type: cell-based; conditions: for activité reverse transcriptase (surnageants de culture): dérivés NP, concentration not given
Description: as §1
Les lymphocytes humains, préalablement activés par la PHA, sont incubés en présence des AcN, des anticorps anti-NP et des dérivés NP (DNP-glycine, DNP-lysine) pendant une nuit à 37°C. Le lendemain, le culot cellulaire est mis en présence du HIV1 pendant 1 heure à 37°C au bain-marie et les cellules sont resuspendues dans du milieu nutritif en présence des produits à tester. Les surnageants de culture sont testés pour l'activité reverse transcriptase pendant 3 semaines.

[4] = system: IHDT-6 (International Health Division-Tumor-6); assay type: cell-based

O=C(O)CNc1ccc([N+](=O)[O-])cc1[N+](=O)[O-] [DNP-glycine, DNP-Glycine]
Activité reverse transcriptase ([1]; 10^-3M): 5444 | Activité reverse transcriptase ([1]; 10^-6M): 3424 | Activité reverse transcriptase ([1]; 10^-7M): 4090 | Activité reverse transcriptase ([1]; 10^-9M): 3638 | inhibition at 300 µg/mL ([2]; 0,3 mg/ml): 48% | inhibition at 600 µg/mL ([2]; 0,6 mg/ml): 50% | inhibition at 70 µg/mL ([2]; 0,07 mg/ml): 28% | inhibition at 150 µg/mL ([2]; 0,15 mg/ml): 40% | inhibition at 1200 µg/mL ([2]; 1,2 mg/ml): 57% | inhibition at 2400 µg/mL ([2]; 2,4 mg/ml): 92% | minimal effective concentration ([2]; 48 h, lowest concentration stated as seroneutralising, virus HVE, read-out: peut séroneutraliser le virus jusqu'à une concentration de): 600 µg/mL | inhibition at 10 µg/mL [3]: 10% | inhibition at 30 µg/mL [3]: 17% | inhibition at 60 µg/mL [3]: 34% | inhibition at 120 µg/mL [3]: 36% | inhibition at 240 µg/mL [3]: 54% | inhibition at 480 µg/mL [3]: 63% | inhibition du virus (result in words) ([3]; ajouté à la culture cellulaire après l'infection virale): peut inhiber le virus même s'il est ajouté à la culture cellulaire après l'infection virale | activité reverse transcriptase (surnageants de culture) (HIV1; 3 jours après l'infection, témoin virus 562): 1064 | activité reverse transcriptase (surnageants de culture) (HIV1; 6 jours après l'infection, témoin virus 1274): 890 | activité reverse transcriptase (surnageants de culture) (HIV1; 10 jours après l'infection, témoin virus 94474): 1234 | activité reverse transcriptase (surnageants de culture) (HIV1; 13 jours après l'infection, témoin virus 63944): 1572 | activité reverse transcriptase (surnageants de culture) (HIV1; 18 jours après l'infection, témoin virus 73368): 1276 | activité reverse transcriptase (surnageants de culture) (HIV1; 20 jours après l'infection, témoin virus 26840): 1270 | activité reverse transcriptase / infectivité virale par rapport au témoin virus (result in words) (HIV1; lymphocytes incubés avec les produits): peuvent conduire à une inhibition totale de l'infectivité virale

TNP-BSA
% Inhibition ([4]; 0,3 mg/ml): 37% | % Inhibition ([4]; 0,6 mg/ml): 51% | % Inhibition ([4]; 0,07 mg/ml): 21% | % Inhibition ([4]; 0,15 mg/ml): 31% | % Inhibition ([4]; 1,2 mg/ml): 73% | % Inhibition ([4]; 2,4 mg/ml): 72% | % Inhibition ([2]; 0,03 mg/ml): 0% | % Inhibition ([2]; 0,5 mg/ml): 55% | % Inhibition ([2]; 0,06 mg/ml): 5% | % Inhibition ([2]; 0,12 mg/ml): 16% | % Inhibition ([2]; 0,25 mg/ml): 35% | % Inhibition ([2]; 1,0 mg/ml): 79% | % Inhibition ([3]; 0.5 mg/ml): 0% | % Inhibition ([3]; 1mg/ml): 17%
